The results in this text go back to patent US12083093B2, “Composition for preventing or treating cellular senescence-related diseases comprising salinomycin as effective component” (RESEARCH COOPERATION FOUNDATION OF YEUNGNAM UNIVERSITY, priority 2018, dated 2024).

Series [1] deals with replicative senescent human fibroblasts (HDF). Nature of the series: SAβG activity staining, replicative senescent human fibroblasts. The conditions noted are these: increasing concentration of salinomycin, senescent cells; FIG. 2A, 2B. The class given is cell-based. As to the method: (§1) After dispensing 2×10^5 cells in a 100 mm culture dish, they were cultured in a 37° C., 5% CO2 incubator. When the cells grew to 80-90% in the culture dish, the cells were removed by treatment with trypsin-EDTA, and the number of cells was measured, and the cell population doubling time (PDT) was measured.
(§2) By successively subculturing the cells in the same process as described above, replication aging was induced. PDT of young fibroblasts was 36 hours, PDT of replicative senescent fibroblasts was 12 days, PDT of young vascular endothelial cells was 24 hours, and PDT of replicative senescent vascular endothelial cells was 7 days.
(§3) After each sample was dissolved in DMSO, young cells, replicative senescent cells and senescent cells in which premature aging was induced by treating with doxorubicin were treated with 100 nM salinomycin, 100 nM rapamycin, 100 nM ABT263. After incubation for 4 days in a 37° C., 5% CO2 incubator, the degree of cell survival was confirmed by CCK-8 analysis, the degree of cellular aging was confirmed by senescence-associated β-galactosidase (SAβG) staining, p53 and p16 protein expression analysis.
(§4) The cells were washed with 1× phosphate buffer solution, and fixed with a phosphate buffer solution containing 3.7% (v/v) paraformaldehyde. […]

Series [2] has as its system peritoneal fibrosis induced by chlorhexidine gluconate (CHG). The experiment in a line: Peritoneal fibrosis induced by chlorhexidine gluconate (CHG) in mice. The series is classed as in vivo, C57BL/6J mice. The conditions noted are these: compared to DMSO group, FIG. 9C, 9D. As to the method:
Animal experiments were conducted with the approval of the Animal Experimental Ethics Committee of Yeungnam University College of Medicine (YUMC-AEC2018-033). Peritoneal fibrosis mice experiments were performed using a model of peritoneal fibrosis induced by chlorhexidine gluconate (CHG) (Yoshio Y et al., Kidney international. 2004).
From the 9th day, 2.5 μl of 10 mM salinomycin (Sal group) or 2.5 μl of DMSO (DMSO group) was diluted in 100 μl phosphate buffer solution and intraperitoneally injected at intervals of 2 days.
As a negative control (NT group), 100 μl of a 15% ethanol phosphate buffer solution was injected intraperitoneally instead of a 0.1% CHG solution. On the 20th day, the mice were sacrificed, the peritoneal tissue was excised, and the tissue was fixed in 4% paraformaldehyde solution.
The tissue fixed in 10% formalin solution was embedded with paraffin and cut into 4 μm to prepare a tissue sample. After removing paraffin from the tissue sample, hematoxylin-eosin staining, trichrome staining, and PAS staining were performed.
The degree of fibrosis was measured by analyzing the degree of collagen staining using the i-Solution™ software program (IMT Inc., Canada) after trichrome staining and the degree of cell senescence in tissue samples was investigated by staining lipofuscin with Sudan black B (Viegas M S, et al., European journal of histochemistry: EJH. 2007). […]

Series [3] relates to premature senescent renal tubular cells (HK2) by doxorubicin. The experiment in a line: SAβG activity staining, doxorubicin-induced premature senescent HK2 cells. The class given is cell-based, human. To be noted: 100 nM, 4 days; compared to DMSO-treated group; FIG. 6A-6C. The protocol:
(§5) Each cell was treated in a serum-free culture solution containing doxorubicin (0.5 μM) for 4 hours. After washing the cells with a serum-free culture solution, the cells were cultured for 4 days in a culture solution containing 10% FBS, and then cellular aging was confirmed by measuring the level of senescence by staining with senescence-associated beta galactosidase.
as §3
The cells were washed with 1× phosphate buffer solution, and fixed with a phosphate buffer solution containing 3.7% (v/v) paraformaldehyde. After adding 1 mg/ml 5-bromo-4-chloro-3-indolyl-β-D-galactoside, 40 mM citric acid-sodium phosphate (pH 6.0), 5 mM potassium ferricyanide, 5 mM potassium ferrocyanide, 150 mM NaCl, and 2 mM MgCl2 solution, it was reacted at 37° C. for 18 hours. It was stained with eosin as a control stain and cells stained blue in the cytoplasm were identified using an optical microscope. […]

Series [4] deals with replicative senescent vascular endothelial cells (HUVEC). The experiment in a line: SAβG activity staining, replicative senescent HUVEC. The series is classed as cell-based, human. The conditions noted are these: salinomycin treatment, 4 days; FIG. 4A, 4B. The protocol: as §1, §2, §3, §4
Series [5] deals with premature senescent retinal pigmented epithelial cells (ARPE) by doxorubicin. The class given is cell-based, human. As to the method: as §5
Cytotoxicity against young and senescent cells was investigated with a lactate dehydrogenase (LDH) activity kit (Dojindo Molecular Technologies Inc.). Young cells (1×10^3 cells/100 μl/well) or senescent cells (2×10^3 cells/100 μl/well) were dispensed into a 96-well plate, and then cultured overnight in a 37° C., 5% CO2 incubator.
Salinomycin, ABT263 and rapamycin were treated at each concentration, and then incubated for 4 days in a 37° C., 5% CO2 incubator. After transferring the cell culture solution to a 1.5 ml tube, it was centrifuged at 4° C. and 12,000 rpm. 100 μl of the supernatant was dispensed into a 96-well plate, and 100 μl of the LDH measurement solution was added to each well, followed by reaction in a CO2 incubator for 30 minutes. 50 μl of the LDH reaction stop solution was added, and absorbance was measured at 490 nm using a microplate reader. The level of LDH activity was expressed as a relative value based on the absorbance of the control group treated with only DMSO.

Series [6] shares this test system. The experiment in a line: CCK-8 cell survival, doxorubicin-induced premature senescent retinal pigmented epithelial cells. The class given is cell-based, human. The conditions noted are these: 100 nM, 4 days; compared to DMSO-treated group; FIG. 5A, 5B. The protocol:
as §5, §3
Young cells (1×10^3 cells/well) or senescent cells (2×10^3 cells/well) were dispensed into a 96-well plate, and cultured overnight in a 37° C., 5% CO2 incubator. Salinomycin, ABT263 and rapamycin were treated at each concentration, and then incubated for 4 days in a 37° C., 5% CO2 incubator. […] Then, the absorbance was measured at 450 nm using a Microplate reader.
The degree of cell survival was expressed as a relative value for the absorbance of the control group treated with only DMSO as 100%. […]

Turning to `CC[C@@H](C(=O)[C@@H](C)[C@@H](O)[C@H](C)[C@@H]1O[C@@H]([C@@H](CC)C(=O)O)CC[C@@H]1C)[C@H]1O[C@]2(C=C[C@@H](O)[C@]3(CC[C@@](C)([C@H]4CC[C@](O)(CC)[C@H](C)O4)O3)O2)[C@H](C)C[C@@H]1C` [salinomycin], the SAβG activity entry was “decreased in senescent cells in a concentration-dependent manner” in series [1] and “decreased” in series [4]. Also, the “thickness of the peritoneal mesothelial cell layer” value in series [2] (2.5 μl of 10 mM salinomycin in 100 μl phosphate buffer i.p. at 2-day intervals from 9th day) was “significantly reduced”. Besides, the “degree of peritoneal fibrosis” value in series [2] (i.p. at 2-day intervals from 9th day) was “decreased”. Moreover, the SaβG activity entry in series [3] was “no change”. Further, in series [5], the “cytotoxicity by LDH activity” value is reported as “significantly increased”. The “cell survival (CCK-8)” value in series [6] is listed as “significantly (p<0.01) reduced”.
